Results: patent US5521167A, “Cyclopentanperhydrophenanthren-17β-(hydroxy or alkoxy)-17α-(Aryl or heterocyclyl)-3β-derivatives active on the cardiovascular system, and pharmaceutical compositions containing same” (Sigma-Tau Industrie Farmceutiche Riunite S.p.A., priority 1992, dated 1996)

Key:
Na^+,K^+ -ATPase [1] = molecular target: T1, Na^+,K^+ -ATPase (Canis lupus familiaris, UniProt P50997); assay: displacement of the specific ^3 H-ouabain binding from the purified Na^+,K^+ -ATPase receptor
T1 construct: Na^+,K^+ -ATPase receptor purified according to Jorghensen; from tissue
Excerpt: (§1) To test the affinity for the receptor site of the Na^+,K^+ -ATPase and the agonist or antagonist activity on the enzyme, the following tests were used: a) displacement of the specific ^3 H-ouabain binding from the Na^+,K^+ -ATPase receptor purified according to Jorghensen (Jorghensen P., BBA, 1974, 356, 36) and Erdmann ( Erdmann E. et al., Arzneim. Forsh., 1984, 34, 1314); b) inhibition of the activity of the purified Na^+,K^+ -ATPase measured as % of hydrolysis of ^32 P-ATP in presence and in absence of the tested compound (Doucet A. et al., Am. J. Physiol., 1986, 251, F851). The ability of these compounds to lower blood pressure in adult hypertensive MHS rats was tested according to the following scheme: systolic blood pressure (SBP) and heart rate (HR) were measured by an indirect tail-cuff method in three-month old hypertensive MHS rats before starting with the treatment (basal values). The rats were then subdivided in two groups of 7 animals each, one receiving the compound and the other, the control group, receiving only the vehicle. The compound was orally daily given, suspended in Methocel 0.5% (w/v), for ten days. SBP and HR were measured daily 6 and 24 hours after the treatment.

Na^+,K^+ -ATPase [2] = molecular target: T1, Na^+,K^+ -ATPase; assay: inhibition of the activity of the purified Na^+,K^+ -ATPase measured as % of hydrolysis of ^32 P-ATP; type: biochemical
Excerpt: as §1

hypertensive MHS rats = assay: systolic blood pressure and heart rate in hypertensive MHS rats (indirect tail-cuff, ten-day oral treatment); type: in vivo, rat; settings: 20 mg/Kg/os daily for ten days, in METHOCEL 0.5% w/v, 7 rats; for SYSTOLIC BLOOD PRESSURE FALL IN SPONTANEOUS HYPERTENSIVE RATS (MHS), SBP: controls 171 +/- 4.5; for HR: controls 384 +/- 11.0
Excerpt: as §1
After ten-day treatment, washout was started for at least two days, to verify whether the treatment maintained SBP low or reestablished the basal values.

[3] = ^3 H-ouabain displacement, purified Na^+,K^+ -ATPase, read-out: Binding ^3 H-Ouab. Displacement log IC50 (converted)
[4] = hydrolysis of ^32 P-ATP, purified Na^+,K^+ -ATPase, read-out: Inhibitory Activity log IC50 (converted)

Row | SMILES | IC50 (Na^+,K^+ -ATPase [1]; [3]) | IC50 (Na^+,K^+ -ATPase [2]) | IC50 (Na^+,K^+ -ATPase [2]; [4]) | SYSTOLIC BLOOD PRESSURE FALL IN SPONTANEOUS HYPERTENSIVE RATS (MHS), SBP (hypertensive MHS rats) | HR (hypertensive MHS rats) | IC50 (Na^+,K^+ -ATPase [1])
1 | C[C@]12CC[C@H](OCCN3CCCC3)C[C@@H]1CC[C@@H]1[C@@H]2CC[C@@]2(C)[C@H]1CC[C@@]2(OCCN1CCCC1)c1ccoc1 [Comp. I-ak, 3β, 17β-Bis(2-(1-pyrrolidinyl)ethoxy)-17α-(3-furyl)-androstane] | 398 nM | 5010 nM | – | – | – | –
2 | C[C@]12CC[C@H](OCCOCCN3CCCC3)C[C@@H]1CC[C@@H]1[C@@H]2CC[C@@]2(C)[C@H]1CC[C@@]2(OCCN)c1ccoc1 [Comp. I-am, 3β-(2-(2-(1-Pyrrolidinyl)ethoxy)ethoxy)-17β-(2-aminoethoxy)-17α-(3-furyl)-androstane] | 200 nM | – | 1580 nM | 153 +/- 5.1 mm Hg | 378 +/- 8.5 beats/min. | –
3 | C[C@]12CC[C@H](OCCN3CCCC3)C[C@H]1CC[C@@H]1[C@@H]2CC[C@@]2(C)[C@H]1CC[C@@]2(OCCN1CCCC1)c1ccoc1 [Comp. I-ad, 3β17β-Bis(2-(1-pyrrolidinyl)ethoxy)-17α-(3-furyl)-5β-androstane] | 398 nM | 3160 nM | – | – | – | –
4 | C[C@]12CC[C@H](SCCOCCN3CCCC3)C[C@@H]1CC[C@@H]1[C@@H]2CC[C@@]2(C)[C@H]1CC[C@@]2(OCCN1CCCC1)c1ccoc1 [Comp. I-ca, 3β-(2-(2-(1-Pyrrolidinyl)ethoxy)ethylthio)-17β-(2-(1-pyrrolidinyl)ethoxy)-17α-(3-furyl)-androstane] | 316 nM | – | 2000 nM | – | – | –
5 | C[C@]12CC[C@H](OCCOCCN3CCCC3)C[C@@H]1CC[C@@H]1[C@@H]2CC[C@@]2(C)[C@H]1CC[C@@]2(OCCN1CCCC1)c1ccoc1 [Comp. I-an, 3β-(2-(2-(1-Pyrrolidinyl)ethoxy)ethoxy)-17β-(2-(1-pyrrolidinyl)ethoxy)-17α-(3-furyl)-androstane] | – | – | – | 152 +/- 5.0 mm Hg | 375 +/- 9.0 beats/min. | –
6 | C[C@]12CC[C@H](O)C[C@H]1CC[C@@H]1[C@@H]2CC[C@]2(C)[C@@H](c3ccoc3)CC[C@]12O [Ref. comp., 17β-(3-furyl)-5β-androstane-3β, 14β-diol, reference compound] | – | 2000 nM | – | 173 +/- 4.0 mm Hg | 380 +/- 10.0 beats/min. | 501 nM
7 | C[C@]12CC[C@H](OCCOCCN3CCCC3)C=C1CC[C@@H]1[C@@H]2CC[C@@]2(C)[C@H]1CC[C@@]2(OCCN)c1ccoc1 [Comp. I-aq, 3β-(2-(2-(1-Pyrrolidinyl)ethoxy)ethoxy)-17α-(2-aminoethoxy)-17α-(3-furyl)-androst-4-ene] | 316 nM | 2510 nM | – | 148 +/- 3.2 mm Hg | 388 +/- 12.0 beats/min. | –
8 | C[C@]12CC[C@H](OCCOCCN3CCCC3)CC1=CC[C@@H]1[C@@H]2CC[C@@]2(C)[C@H]1CC[C@@]2(OCCN1CCCC1)c1ccoc1 [Comp. I-ay, 3β-(2-(2-(1-pyrrolidinyl)ethoxy)ethoxy)-17β-(2-(1-pyrrolidinyl)ethoxy)-17α-(3furyl)-androst-5-ene] | 398 nM | – | 1580 nM | 149 +/- 4.8 mm Hg | 395 +/- 10.0 beats/min. | –
9 | C[C@]12CC[C@H](OCCOCCN3CCCC3)C[C@@H]1CC[C@@H]1[C@@H]2CC[C@@]2(C)[C@H]1CC[C@@]2(O)c1ccoc1 [Comp. I-al, 3β-(2-(2(1-Pyrrolidinyl)ethoxyy)ethoxy)-17α-(3-furyl)-androstan-17β-ol] | 501 nM | – | 1580 nM | – | – | –
10 | C[C@]12CC[C@H](OCCCN)C[C@@H]1CC[C@@H]1[C@@H]2CC[C@@]2(C)[C@H]1CC[C@@]2(O)c1ccoc1 [Comp. I-ai, 3β-(3-Aminopropoxy)-17α-(3-furyl)-androstan-17β-ol] | – | – | 1580 nM | – | – | 251 nM
